Data taken from US10357481B2 (MERCK SHARP & DOHME CORP., priority 2015, dated 2019).

Target: T1, human PDE2A1 (Homo sapiens, UniProt O00408)
T1 construct: GST; purchased BPS Bioscience (San Diego, Calif.) 60020; host or cells: insect cells
Experiment: IMAP FP PDE selectivity panel, human PDE2A1
Type: biochemical
Details: Lab B; read-out: Human PDE2 Ki (nM) Lab B
Summary of the method: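 Human PDE2A1 tested alongside PDE1–11 by IMAP fluorescence polarization at room temperature. Substrate was 50 nM FAM-cAMP plus 1000 nM cGMP, buffer pH 7.2 with MgCl2 and DTT, enzyme set for 20% conversion. Ten 3-fold compound dilutions; 60 min reaction, then IMAP binding solution, 1 h, parallel/perpendicular fluorescence read.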

T1 sequence (O00408 1-920 isoform O00408-2): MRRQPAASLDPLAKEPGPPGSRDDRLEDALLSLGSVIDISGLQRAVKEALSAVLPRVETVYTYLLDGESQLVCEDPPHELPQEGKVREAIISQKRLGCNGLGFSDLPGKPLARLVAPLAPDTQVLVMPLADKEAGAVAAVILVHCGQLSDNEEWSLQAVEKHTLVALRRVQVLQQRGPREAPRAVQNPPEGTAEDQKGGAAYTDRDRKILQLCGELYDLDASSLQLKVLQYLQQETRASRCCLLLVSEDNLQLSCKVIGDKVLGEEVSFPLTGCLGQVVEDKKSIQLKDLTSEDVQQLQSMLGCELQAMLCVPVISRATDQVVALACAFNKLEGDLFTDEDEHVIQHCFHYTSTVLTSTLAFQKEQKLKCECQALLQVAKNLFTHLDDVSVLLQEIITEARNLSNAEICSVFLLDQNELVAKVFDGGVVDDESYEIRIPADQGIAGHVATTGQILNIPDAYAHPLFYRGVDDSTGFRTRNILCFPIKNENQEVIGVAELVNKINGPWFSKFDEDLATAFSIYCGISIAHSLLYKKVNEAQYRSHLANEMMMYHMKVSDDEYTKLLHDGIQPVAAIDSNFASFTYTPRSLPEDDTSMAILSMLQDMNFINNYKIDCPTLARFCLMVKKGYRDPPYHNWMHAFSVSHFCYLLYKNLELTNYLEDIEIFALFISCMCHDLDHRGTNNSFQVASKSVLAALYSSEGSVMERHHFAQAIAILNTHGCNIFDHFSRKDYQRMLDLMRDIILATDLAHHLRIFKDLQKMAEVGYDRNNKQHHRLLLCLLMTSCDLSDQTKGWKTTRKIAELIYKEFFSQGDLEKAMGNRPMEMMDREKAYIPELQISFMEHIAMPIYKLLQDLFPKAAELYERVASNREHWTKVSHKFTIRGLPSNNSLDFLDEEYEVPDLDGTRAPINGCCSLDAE

Compound | Ki [nM]
Cc1cc(N[C@H](C)c2ccc(C3(C)CC3)cc2)n2ncnc2n1 [Example 15, 5-Methyl-N-{(1R)-1-[4-(1-methylcyclopropyl)phenyl]ethyl} [1,2,4]triazolo[1,5-a]pyrimidin-7-amine] | 173
CC[C@@H](Nc1cc(C)nc2ncnn12)c1ccc(C(F)(F)F)c(F)c1 [Example 16, N-{(1R)-1-[3-Fluoro-4-(trifluoromethyl)phenyl]propyl}-5-methyl[1,2,4]triazolo[1,5-a] pyrimidin-7-amine] | 61
CC[C@@H](Nc1cc(C)nc2ncnn12)c1ccc(SC(F)(F)F)cc1 [Example 17, 5-Methyl-N-[(1R)-1-{4-[(trifluoromethyl)sulfanyl]phenyl}propyl][1,2,4]triazolo[1,5-a] pyrimidin-7-amine] | 15
CC[C@@H](Nc1cc(C)nc2ncnn12)c1ccc(SC(F)(F)F)c(F)c1 [Example 18, N-[(1R)-1-{3-Fluoro-4-[(trifluoromethyl)sulfanyl]phenyl}propyl]-5-methyl[1,2,4]triazolo[1,5-a]pyrimidin-7-amine] | 15
Cc1cc(N[C@@H](c2ccc(C(F)(F)F)cc2)C(C)C)n2ncnc2n1 [Example 19, 5-Methyl-N-{(1R)-2-methyl-1-[4-(trifluoromethyl)phenyl]propyl} [1,2,4]triazolo[1,5-a]pyrimidin-7-amine] | 36
Cc1cc(N[C@@H](c2ccc(C(F)(F)F)c(F)c2)C(C)C)n2ncnc2n1 [Example 20, N-{(1R)-1-[3-Fluoro-4-(trifluoromethyl)phenyl]-2-methylpropyl}-5-methyl[1,2,4]triazolo[1,5-a] pyrimidin-7-amine] | 28
Cc1cc(N[C@@H](c2ccc(SC(F)(F)F)c(F)c2)C(C)C)n2ncnc2n1 [Example 21, N-[(1R)-1-{3-Fluoro-4-[(trifluoromethyl)sulfanyl]phenyl}-2-methylpropyl]-5-methyl[1,2,4]triazolo[1,5-a] pyrimidin-7-amine] | 4
Cc1cc(N[C@@H](c2ccc(S(F)(F)(F)(F)F)cc2)C(C)C)n2ncnc2n1 [Example 22, 5-Methyl-N-{(1R)-2-methyl-1-[4-(pentafluoro-λ^6-sulfanyl)phenyl]propyl}[1,2,4]triazolo[1,5-a] pyrimidin-7-amine] | 13
Cc1cc(N[C@@H](c2ccc(OC(F)F)cc2)C(C)C)n2ncnc2n1 [Example 23, N-{(1R)-1-[4-(Difluoromethoxy)phenyl]-2-methylpropyl}-5-methyl [1,2,4]triazolo[1,5-a]pyrimidin-7-amine] | 45
Cc1cc(N[C@@H](c2ccc(C3(C)CC3)cc2)C(C)C)n2ncnc2n1 [Example 24, 5-Methyl-N-{(1R)-2-methyl-1-[4-(1-methyl-cyclopropyl)phenyl]propyl} [1,2,4]triazolo[1,5-a]pyrimidin-7-amine] | 26
Cc1cc(N[C@@H](c2ccc(C3CC3)cc2F)C(C)C)n2ncnc2n1 [Example 25, N-[(1R)-1-(4-Cyclopropyl-2-fluorophenyl)-2-methylpropyl]-5-methyl[1,2,4]triazolo[1,5-a] pyrimidin-7-amine] | 9.9
Cc1cc(N[C@@H](c2ccc(C(F)(F)F)cc2)C(C)(C)C)n2ncnc2n1 [Example 26, N-{(1R)-2,2-Dimethyl-1-[4-(trifluoromethyl)phenyl]propyl}-5-methyl[1,2,4]triazolo[1,5-a] pyrimidin-7-amine] | 11
Cc1cc(N[C@@H](c2ccc(C(F)(F)F)c(F)c2)C(C)(C)C)n2ncnc2n1 [Example 27, N-{(1R)-1-[3-Fluoro-4-(trifluoromethyl)phenyl]-2,2-dimethylpropyl}-5-methyl[1,2,4]triazolo[1,5-a] pyrimidin-7-amine] | 10
Cc1cc(N[C@@H](c2ccc(OC(F)(F)F)c(F)c2)C(C)(C)C)n2ncnc2n1 [Example 28, N-{(1R)-1-[3-Fluoro-4-(trifluoromethoxy)phenyl]-2,2-dimethylpropyl}-5-methyl[1,2,4]triazolo[1,5-a] pyrimidin-7-amine] | 7.1
Cc1cc(N[C@@H](c2ccc(SC(F)(F)F)cc2)C(C)(C)C)n2ncnc2n1 [Example 29, N-[(1R)-2,2-Dimethyl-1-{4-[(trifluoromethyl)sulfanyl]phenyl}propyl]-5-methyl[1,2,4]triazolo[1,5-a] pyrimidin-7-amine] | 2.1
Cc1cc(N[C@@H](c2ccc(C3CC3)cc2)C(C)(C)C)n2ncnc2n1 [Example 30, N-[(1R)-1-(4-Cyclopropyl-phenyl)-2,2-dimethylpropyl]-5-methyl[1,2,4]triazolo[1,5-a] pyrimidin-7-amine] | 4.4
Cc1cc(N[C@@H](c2ccc(C3CC3)c(F)c2)C(C)(C)C)n2ncnc2n1 [Example 31, N-[(1R)-1-(4-Cyclopropyl-3-fluorophenyl)-2,2-dimethylpropyl]-5-methyl[1,2,4]triazolo[1,5-a] pyrimidin-7-amine] | 4.9
Cc1cc(N[C@@H](c2ccc(OC(F)(F)F)cc2)C(C)(C)C)n2ncnc2n1 [Example 32, N-{(1R)-2,2-Dimethyl-1-[4-(trifluoromethoxy)phenyl]propyl}-5-methyl[1,2,4]triazolo[1,5-a] pyrimidin-7-amine] | 6.6
Cc1cc(N[C@@H](c2ccc(OC(F)F)cc2)C(C)(C)C)n2ncnc2n1 [Example 33, N-{(1R)-1-[4-(Difluoromethoxy)phenyl]-2,2-dimethylpropyl}-5-methyl[1,2,4]triazolo[1,5-a] pyrimidin-7-amine] | 17
Cc1cc(N[C@@H](c2ccc(C(F)(F)F)cc2F)C(C)(C)C)n2ncnc2n1 [Example 34, N-{(1R)-1-[2-Fluoro-4-(trifluoromethyl)phenyl]-2,2-dimethylpropyl}-5-methyl[1,2,4]triazolo[1,5-a] pyrimidin-7-amine] | 15
Cc1cc(N[C@@H](c2ccc(CC(F)(F)F)cc2)C(C)(C)C)n2ncnc2n1 [Example 35, N-{(1R)-2,2-Dimethyl-1-[4-(2,2,2-trifluoroethyl)phenyl]propyl}-5-methyl[1,2,4]triazolo[1,5-a] pyrimidin-7-amine] | 7.8
Cc1cc(N[C@@H](c2ccc(S(F)(F)(F)(F)F)cc2)C(C)(C)C)n2ncnc2n1 [Example 36, N-{(1R)-2,2-Dimethyl-1-[4-(pentafluoro-λ^6-sulfanyl)phenyl]propyl}-5-methyl [1,2,4]triazolo[1,5-a]pyrimidin-7-amine] | 6.3
Cc1cc(N[C@@H](c2ccc(S(F)(F)(F)(F)F)cc2)C2CC2)n2ncnc2n1 [Example 37, N-{(1R)-Cyclopropyl[4-(pentafluoro-λ^6-sulfanyl)phenyl]methyl}-5-methyl[1,2,4]triazolo[1,5-a] pyrimidin-7-amine] | 22
Cc1cc(N[C@@H](c2ccc(C3CC3)c(F)c2)C2CC2)n2ncnc2n1 [Example 38, N-[(R)-Cyclopropyl(4-cyclopropyl-3-fluorophenyl)methyl]-5-methyl[1,2,4]triazolo[1,5-a] pyrimidin-7-amine] | 20
Cc1cc(N[C@@H](c2ccc(C(F)(F)F)c(F)c2)C2CC2)n2ncnc2n1 [Example 39, N-{(R)-Cyclopropyl[3-fluoro-4-(trifluoromethyl)phenyl]methyl}-5-methyl[1,2,4]triazolo[1,5-a] pyrimidin-7-amine] | 49
Cc1cc(N[C@@H](c2ccc(SC(F)(F)F)cc2)C2CC2)n2ncnc2n1 [Example 40, N-[(R)-Cyclopropyl{4-[(trifluoromethyl)sulfanyl]phenyl}methyl]-5-methyl[1,2,4]triazolo[1,5-a] pyrimidin-7-amine] | 14
